Patent publication US6933282B2, “Regulation of tyrosine hydroxylase by GPE” (Neuren Pharmaceuticals Ltd., priority 1998, dated 2005)

Legend:
Assay type in all cases: in vivo, rat
[1] = tested on: tyrosine hydroxylase (TH); experiment: Example 3: TH immunostaining density and TH positive neuron number in SNc after 6-OHDA lesion
Description: A paired experimental design was used and the experimenter was blinded to the treatment groups. Eighteen male Wistar rats (50-60 days old, 280-310 g) were used for this study. 6-hydroxy dopamine (6-OHDA) was prepared as 8 μg in a base of 2 μl 0.9% saline containing 1% ascorbic acid. It was administered into the right medial forebrain bundle (MFB) using coordinates of AP+4.7 mm, R 1.6 mm, V−8 mm under anaesthesia of 3% halothane. 6-OHDA was injected into the right MFB using a Hamilton syringe (100 μl with a 30G needle) controlled by a microdialysis infusion pump at an infusion rate of 0.2 μl/minute. The infusion needle was then slowly withdrawn 5 minutes after the infusion. […] Briefly, a guide cannula (21G, 6 mm) was fixed on the top of the dura with coordinates of AP+7.5 mm, R 1.5 mm immediately after the injection of 6-OHDA. Either GPE (3 μg/15 μl) or its vehicle were infused into the right lateral ventricle 2 hours later at an infusion rate of 2 μl/minute. Rats were then housed in a holding room with food and water ad libitum for the next 2 weeks.
The rats were then deeply anaesthetized with an overdose of pentobarbital and transcardially perfused with normal saline followed by 10% buffered formalin. The brains were removed from the skull and kept in the same fixative for the next 48 hours. A standard paraffin tissue preparation was used to process the tissue so that it could be used for immunohistochemistry. Coronal sections (8 μm) were cut using a microtome, and the sections were mounted on chrome alum coated microscopy slides and air-dried. SNc sections used for immunohistochemical staining were deparaffinized, rehydrated and washed in PBS (0.1M). The sections were then pretreated with 1% H2O2 for 20 minutes, washed with 0.1M PBS (3×5 minutes) and incubated with rabbit polyclonal antisera raised against tyrosine hydroxylase (Protos Biotech, USA) diluted 1:500 with 1% goat serum for 48 hours at 4° C. The sections were washed in PBS (3×5 minutes) and incubated with donkey anti-rabbit biotinylated secondary antibody (1:200, Amersham, Life Science) overnight at room temperature. The sections were washed, incubated in streptavidin-biotinylated horseradish peroxidase (1:200, Amersham, Life Science) for 3 hours, washed again in PBS and then reacted in 0.05% 3,3-diaminobenzidine tetrahydrochloride (DAB) and 0.01% H2O2 to produce a brown reaction product. The sections were dehydrated in a graded alcohol series, cleared in xylene and coverslipped with mounting medium.
The average density from the background was also measured. The analyst was blinded to the treatment and control groups. The difference in average density between the background and TH immunostaining was calculated and used for data analysis. […]

[2] = tested on: tyrosine hydroxylase (TH); experiment: Example 4: survival of TH immunopositive nigral neurons after medial forebrain bundle transection; details: lesioned side; daily supranigral GPE 0.3 μg/μl, 1 μl, for two weeks after MFB transection; ipsilateral/contralateral; FIG. 5
Description: Adult male Wistar rats (200-220 g) were anaesthetized with 75 mg/kg Nembutal and positioned in a stereotaxic apparatus. Unilateral transection of the medial forebrain bundle which contains the ascending nigral dopaminergic projection fibers was made 1.3 mm rostral to the rostral tip of the SNc using a retractable wire knife (David Kopf Instruments, Tujunga, Calif.). The knife was lowered into the brain using the following coordinates from the atlas of Paxinos and Watson (1986), Sydney: Academic Press: 3.3 mm posterior to Bregma, 2.4 mm lateral from midline, and 8.5 mm ventral from skull, the blade was extended 2.0 mm toward midline, raised 2.5 mm dorsally, retracted and extended again, and then returned 2.5 mm ventrally. The wire blade was retracted and the knife withdrawn. Next, a 22-gauge metal guide cannula was permanently fixed into place supranigrally at 5.0 mm posterior to Bregma, 2.0 mm lateral to midline, and 6.8 mm ventral to skull. […]
Immunopositive cells were counted in the central SNc Counts were made ventral and lateral to the lemniscus medialis, including both the pars compacta and pars reticulata, but excluding the ventral tegmental area in the ventromedial midbrain and the retrorubral field in the caudolateral midbrain. […] To reveal percent survival, percent changes were calculated by dividing the ipsilateral value by contralateral value.

[3] = tested on: tyrosine hydroxylase (TH); experiment: Example 1: TH immunopositive neuron count in SNc after 6-OHDA lesion, GPE given 2 hours later; details: lesioned (right) side; 3 μg GPE via guide cannula 2 hours after 6-OHDA; 14 days; 3 levels of SNc; vs vehicle; FIG. 1
Description: This experiment was blind with respect to the treatment (with GPE or the vehicle) and with respect to the counting of neurons expressing TH (between sections from animals treated with GPE or vehicle).
(§1) The objective of this experiment was to determine the effects of administering GPE on the expression of tyrosine hydroxylase (TH) in the presence or absence of CNS injury. […] Specifically, 9 pairs of adult male Wistar rats (280-320 g) were prepared under 3% halothane/O2 anaesthesia. The oxygen free radical producing neurotoxin 6-hydroxydopamine (6-OHDA) which produces degeneration of dopamine neurones (8 μg/2 μl) was injected into the median forebrain bundle using a 30 gauge needle (coordinates: anterior-posterior +4.7 mm, right +1.6 mm, vertical −8.5 mm). A guide cannula was placed on the dura 7.5 mm anterior from stereotaxic zero and 1.5 mm from the midline on the right. The rats were left to recover at room temperature. 2 hours after the administration of 6-OHDA the rats were treated, via the guide cannula, with 3μg GPE or vehicle alone (15μl injected with a pump rate of 2 μl/minute, 0.1M acetate buffer [pH6], diluted 10 times in 0.1 bovine serum albumin in 0.1M phosphate buffered saline [PBS][pH7.31]). […]
(§2) The total counts of neurons were compared between the GPE and the vehicle treated group. Data were analysed with paired t-test and presented as mean±sem.

[4] = tested on: tyrosine hydroxylase (TH); experiment: Example 2: TH immunopositive neuron count in SNc after 6-OHDA lesion, second set of rats; details: 3 μg GPE 2 hours after 6-OHDA; 2 levels of SNc counted; vs vehicle; FIG. 2
Description: as §1, §2
Example 2 was performed using a second set of rats (9 pairs), using the same experimental parameters except that only the immunopositive neurons at 2 levels of the SNc were counted.

## Gly-Pro-Glu [GPE]
[1]; compared to the control group, 6-OHDA lesion
  loss of TH immunopositive neurons in the SNc: prevented the loss
[1]; ipsilateral SNc, GPE intraventricularly 2 hours after 6-OHDA, FIG. 4
  density of TH immunostaining in cytoplasm and processes of neurons: restored
[1]; most caudal level of SNc, GPE 3 μg/15 μl into right lateral ventricle 2 hours after 6-OHDA, 2 weeks, mean±SEM
  neuronal survival (TH immunopositive neurons, R/L ratio): 60±13.0%
[1]; most caudal level of SNc, GPE 3 μg/15 μl into right lateral ventricle 2 hours after 6-OHDA, 2 weeks, mean±SEM, FIG. 3
  restoration in TH immunoreactivity (density of TH immunostaining, R/L ratio): 99.6±27%
[2]
  percent cell survival of TH immunopositive neurons: increased
[3]
  number of TH immunopositive dopaminergic neurons: increased
[4]
  TH expression (number of TH immunopositive neurons): upregulation of TH expression
